Measured values reported in US20230321085A1, “COMPOUND FOR USE IN THE TREATMENT OF DRY MOUTH” (ASAHI PHARMA CO., LTD., priority 2020, published 2023).

Columns and labels:
[1] = test system: awake rats; test: effect on salivation in awake rats (oral administration); assay type: in vivo, rat; conditions: for duration of effect on salivation: oral administration to awake rats
Experimental: Pilocarpine therefore alleviates the dry mouth symptoms, but it leads to hyperhidrosis as a further side effect. Moreover, experiments in rats have shown that the effect of pilocarpine on salivation is only short-lived and that initial salivation levels are approached after about 60 minutes (FIG. 1).
Moreover, experiments have shown that its effect on salivation is long-lasting (FIG. 2 as well as FIGS. 3, 4 and 5).

[2] = test system: healthy non-elderly and elderly male and female subjects; test: multiple ascending oral dose clinical study of the compound of the invention (second part); assay type: in vivo, human; conditions: multiple oral doses 10, 30, 100, 150 mg
Experimental: The second part of the study investigated, multiple ascending oral doses in 4 cohorts (cohorts 2.1 to 2.4). Each cohort consisted of 12 healthy non-elderly male and female subjects, one optional cohort (cohort 2.5) consisting of 12 healthy nonelderly male and female subjects and one cohort (cohort 2.6) consisting of 12 healthy elderly male and female subjects who were randomized to receive the compound or matching placebo in a 3:1 ratio.
Actual dose levels were 10, 30, 100 and 150 mg of the compound (cohorts 2.1 to 2.4, respectively). The optional cohort 2.5 was not enrolled. The actual dose level for the elderly cohort (cohort 2.6) was 150 mg of the compound.
Sentinel dosing was employed for all cohorts. The first 2 subjects within a cohort (1 subject received the compound and 1 subject received matching placebo) were dosed at least 5 minutes apart. These 2 subjects were monitored for safety for 48 hours after receiving the first dose while dosing was continued. The remaining 10 subjects (8 with the compound and 2 with matching placebo) were divided into 2 sub-cohorts and were dosed at least 48 hours after the first 2 subjects with 48 hours between the 2 sub-cohorts.

[3] = test system: healthy non-elderly male and female subjects; test: single ascending oral dose clinical study of the compound of the invention (first part); assay type: in vivo, human; conditions: single oral dose 1, 3, 10, 30, 100, 150 mg
Experimental: In the first part of a randomized, subject- and investigator-blinded, placebo-controlled, single ascending oral dose, parallel group study comprising of 7 cohorts (cohorts 1.1 to 1.7) the compound of the invention was administered at dose levels of 1, 3, 10, 30, 100, and 150 mg. Each cohort consisted of 8 healthy non-elderly male and female subjects who were randomized to receive the compound or matching placebo in a 3:1 ratio.
After a screening period of 21 days, eligible subjects who had signed an informed consent form (ICF) to participate in the study were residential for a single treatment period of 5 days/4 nights. Subjects were admitted to the clinical unit on day −1. After randomization on day 1, subjects received a single oral dose of the compound or matching placebo under fasting. Each cohort was completed with an end-of-study visit, which took place 5 to 9 days after the last pharmacokinetic sample had been collected (or early discontinuation from the study).

[4] = clinical study with a reference M3 PAM (similar to first study in Example 2); assay type: in vivo, human; conditions: dose levels of 1, 3, 10, 30 and 90 mg, FIG. 6
Experimental: In a study similar to the first study in Example 2, a known M3 positive allosteric modulator reference compound (example 8 of EP 2 963 036) with the following structure
was administered in dose levels of 1, 3, 10, 30 and 90 mg.

[5] = test system: healthy subjects; test: Phase 1 study of the effect of pilocarpine on salivary secretion in healthy subjects; assay type: in vivo, human; conditions: for participants reporting hyperhidrosis as side effect: periods 1 to 4
Experimental: A Phase 1 study to investigate the effect of pilocarpine on salivary secretion was conducted in 12 healthy subjects. The study was conducted as a randomized, subject- and investigator-blinded, placebo-controlled, oral dose clinical study using a 5-way balanced extra period design. Pilocarpine capsules containing 2.5 mg were administered orally (1 capsule for a 2.5 mg dose, 2 capsules for a dose of 5.0 mg pilocarpine and 4 capsules for a dose of 10 mg pilocarpine). Subjects were admitted to the clinical unit on day 1 and were residential for a period of 6 days and 5 nights. Subjects were randomized to 1 of 4 treatment sequences on day 1 prior to study drug administration. Each study period was approximately 1 day and subjects received the different oral doses of the study drug (pilocarpine or placebo to match) in periods 1 through 5. There was a 4-hour saliva collection period following every dose and a washout period of at least 24 hours between doses. To assess the pharmacodynamic effect of pilocarpine on saliva secretion, saliva samples were collected over 5-minute intervals from pre-dose until 4 hours post-dose at the timepoints 0.5, 0.75, 1.0, 1.5, 2.0, 3.0 and 4.0 h.

| Compound | duration of effect on salivation [1] [h] | hyperhidrosis as a side effect [2] | salivary secretion rates ([2]; FIG. 5) | hyperhidrosis as a side effect [3] | salivary secretion rates ([3]; FIG. 4) | impact on salivation [4] | time after which initial salivation levels are approached ([1]; rats, FIG. 1) | sweating ([5]; clinically relevant doses (5 mg and 10 mg qd)) | effect on salivation ([5]; human trials, 2.5, 5 and 10 mg pilocarpine) | participants reporting hyperhidrosis as side effect ([5]; pilocarpine dose of 5 mg) [%] | participants reporting hyperhidrosis as side effect ([5]; pilocarpine dose of 10 mg) [%] |
| --- | --- | --- | --- | --- | --- | --- | --- | --- | --- | --- | --- |
| C[C@@H]1CCCN1Cc1sc(NC(=O)c2cnc(N3CCN(CCC(=O)O)[C@@H](C)C3)cn2)nc1-c1cc(Cl)cs1 [compound of the invention] | ≥ 8 | not reported | increased salivary secretion rates | not reported | increased salivary secretion rates | – | – | – | – | – | – |
| CC[C@@H]1CCCN1Cc1sc(NC(=O)c2cnc(N3CCC(C(=O)O)CC3)cn2)nc1-c1ccc(OC)c(C(F)(F)F)c1 [example 8 of EP 2 963 036] | – | – | – | – | – | do not significantly impact salivation | – | – | – | – | – |
| CC[C@@H]1C(=O)OC[C@@H]1Cc1cncn1C [pilocarpine] | ≤ 1 | – | – | – | – | – | about 60 minutes | a significant number of the patients suffered from sweating | increased salivation | 8.3 | 50 |
